Data on 14 compounds can be found in publication PMC8910447 (International Journal of Molecular Sciences, 2022).

SMILES strings stand for the structures. Read-outs that look alike come from different tables or passages of the source.

For one data set, the system named is EBOVpp. Briefly: microbe, parasite or virus in culture. Format: cell-based, Zaire ebolavirus.
A further data set can be described thus: in vitro. As to conditions: human.
For data set [1], the system named is pCMV C-His (negative control). In kind it is binding.
The target in a further data set is EBOV-GP (Zaire ebolavirus, UniProt Q05320). Briefly: biochemical. Format: binding, Ebola virus.
Sequence of EBOV-GP (Q05320 33-676 limits assumed): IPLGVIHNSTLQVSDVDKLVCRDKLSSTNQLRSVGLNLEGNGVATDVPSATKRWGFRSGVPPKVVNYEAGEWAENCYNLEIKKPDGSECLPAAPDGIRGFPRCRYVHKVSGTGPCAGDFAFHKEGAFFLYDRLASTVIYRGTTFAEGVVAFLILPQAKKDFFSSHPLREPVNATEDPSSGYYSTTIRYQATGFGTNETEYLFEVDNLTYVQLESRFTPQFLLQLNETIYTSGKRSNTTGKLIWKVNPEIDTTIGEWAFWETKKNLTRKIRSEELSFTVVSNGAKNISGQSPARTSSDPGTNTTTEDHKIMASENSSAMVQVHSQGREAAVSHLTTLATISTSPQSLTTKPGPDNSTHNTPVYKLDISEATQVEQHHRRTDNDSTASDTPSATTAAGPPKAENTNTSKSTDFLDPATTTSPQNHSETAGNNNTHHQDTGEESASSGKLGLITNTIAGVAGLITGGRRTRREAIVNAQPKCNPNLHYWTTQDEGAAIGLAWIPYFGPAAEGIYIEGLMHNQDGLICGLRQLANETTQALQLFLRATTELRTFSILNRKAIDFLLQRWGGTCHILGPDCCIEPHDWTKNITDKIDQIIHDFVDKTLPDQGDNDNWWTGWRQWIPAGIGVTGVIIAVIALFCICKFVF
Data set [2] relates to infectious recombinant EBOV. As to conditions: read-out: IC50 against infectious recombinant EBOV infection; cited from earlier work.
Setting [3] is: Zaire ebolavirus, A549, n = 3, read-out: EBOVpp IC50.
Setting [4] is: Zaire ebolavirus, A549, read-out: IC50 (M) against infection with EBOVpp.

For orientation: IC50 means the concentration needed to halve the response being measured. Regarding `CN(C)CCOc1ccc(/C(=C(/CCCl)c2ccccc2)c2ccccc2)cc1` [Toremifene, toremifene, reference compound], the IC50 in the data set on EBOVpp (setting [3]) was determined as 1.7e-07 M. The same compound returned a CC50 in the data set “in vitro” of 2.92 µM. For the same compound, in data set [1], the “binding curve with the negative control” value was “could not produce a binding curve”.

For the compound `Oc1cc(O)c2c(c1)O[C@H](c1cc(O)c(O)c(O)c1)[C@H](O)C2` [Epigallocatechin (11), epigallocatechin], the “Selectivity Index (SI)” value with EBOVpp is reported as over 29.5. For the same compound, the IC50 in the data set with EBOVpp (setting [4]) and in the data set with EBOVpp (setting [3]) was 5.53e-06 M throughout. The same compound registered a CC50 in “in vitro” of over 163 µM.

As to `Oc1cc(O)c2c(c1)O[C@H](c1cc(O)c(O)c(O)c1)[C@@H](O)C2` [Gallocatechin (10), gallocatechin], in the data set on EBOVpp, the “Selectivity Index (SI)” value is reported as over 13.1. The IC50 with EBOVpp (setting [4]) and in the data set on EBOVpp (setting [3]) was 1.24e-05 M each time. The CC50 in the data set “in vitro” is over 163 µM.

In the case of `O=C(O[C@@H]1Cc2c(O)cc(O)cc2O[C@@H]1c1cc(O)c(O)c(O)c1)c1cc(O)c(O)c(O)c1` [EGCG (8), (−)-epigallocatechin-3-O-gallate], the “Selectivity Index (SI)” value in the data set on EBOVpp is given as over 7.81. Moreover, the IC50 in the data set with EBOVpp (setting [4]) and in the data set with EBOVpp (setting [3]) was 2.8e-06 M throughout. Moreover, the CC50 in “in vitro” was over 21.8 µM.

For `Oc1cc(O)c2c(c1)O[C@H](c1ccc(O)c(O)c1)[C@@H](O)C2` [(+) Catechin (4), (+)-catechin], the IC50 in the data set on EBOVpp (setting [4]) and with EBOVpp (setting [3]) was 3.6e-05 M throughout. In addition, the CC50 in “in vitro” was over 34.5 µM.

On to `O=C(O[C@@H]1Cc2c(O)cc(O)cc2O[C@@H]1c1ccc(O)c(O)c1)c1ccccc1` [13b, (2R,3R)-2-(3,4-Dihydroxyphenyl)-5,7-dihydroxychroman-3-yl benzoate], for which the inhibition at 10 µM in the data set on EBOVpp (Zaire ebolavirus, A549, read-out: inhibitory effect against EBOVpp infection) was over 60%.

For the compound `Oc1cc(O)c2c(c1)OC(c1ccc(O)c(O)c1)C(O)C2c1c(O)cc(O)c2c1OC(c1ccc(O)c(O)c1)C(O)C2c1c(O)cc(O)c2c1OC(c1ccc(O)c(O)c1)C(O)C2c1c(O)cc(O)c2c1OC(c1ccc(O)c(O)c1)C(O)C2` (stereo not drawn) [Procyanidin tetramer (3), epicatechin-(4β→8)-epicatechin-(4β→8)-epicatechin-(4β→8)-epicatechin], the IC50 with EBOVpp (setting [3]) is over 1.15e-05 M. In addition, the CC50 in the data set “in vitro” is over 11.5 µM.

The Kd is the constant that tells how readily two partners part at equilibrium. As to `Oc1cc(O)c2c(c1)O[C@H](c1ccc(O)c(O)c1)[C@H](O)[C@H]2c1c(O)cc(O)c2c1O[C@H](c1ccc(O)c(O)c1)[C@H](O)C2` [Procyanidin B2 (1), procyanidin B2], the “Selectivity Index (SI)” value with EBOVpp was over 104. The IC50 in the data set with EBOVpp (setting [4]) turned out to be 8.29e-07 M; with EBOVpp (setting [3]) it was 8.3e-07 M. In “in vitro”, this compound returned a CC50 of over 86.5 µM. The same compound had a Kd at EBOV-GP of 13 µM. Besides, the “binding curve with the negative control” value in data set [1] is recorded as “could not produce a binding curve”.

In the case of `Oc1cc(O)c2c(c1)O[C@H](c1ccc(O)c(O)c1)[C@H](O)C2` [(−) Epicatechin (5), (−)-epicatechin], the “Selectivity Index (SI)” value in the data set on EBOVpp is recorded as over 7.79. In addition, the IC50 in the data set on EBOVpp (setting [4]) and in the data set on EBOVpp (setting [3]) was 2.21e-05 M in each case. For the same compound, the CC50 in the data set “in vitro” was over 172 µM.

As for `O=C(O[C@@H]1Cc2c(O)cc(O)cc2O[C@@H]1c1ccc(O)c(O)c1)c1cc(O)c(O)c(O)c1` [ECG (9), epicatechin 3-O-gallate], in the data set with EBOVpp, the “Selectivity Index (SI)” value is over 7.68. The IC50 in the data set with EBOVpp (setting [4]) and in the data set with EBOVpp (setting [3]) was 2.95e-06 M throughout. The CC50 in the data set “in vitro” was over 22.6 µM.

Consider `Oc1cc(O)c2c(c1)O[C@H](c1ccc(O)c(O)c1)[C@H](O)[C@H]2c1c(O)cc(O)c2c1O[C@H](c1ccc(O)c(O)c1)[C@@H](O)C2` [Procyanidin B1 (6), Procyanidin B1], for which the “Selectivity Index (SI)” value with EBOVpp was over 91.1. For the same compound, the IC50 with EBOVpp (setting [4]) was found to be 9.13e-07 M; with EBOVpp (setting [3]), 9.5e-07 M. The compound further registered a CC50 in “in vitro” of over 86.5 µM.

Take `Oc1cc(O)c2c(c1)O[C@H](c1ccc(O)c(O)c1)[C@@H](O)[C@@H]2c1c(O)cc(O)c2c1O[C@H](c1ccc(O)c(O)c1)[C@@H](O)C2` [Procyanidin B3 (7), Procyanidin B3]: the “Selectivity Index (SI)” value with EBOVpp is listed as over 57.1. The IC50 with EBOVpp (setting [3]) amounted to 1.52e-06 M. Further, the CC50 in the data set “in vitro” is over 86.5 µM.

In the case of `Oc1cc(O)c2c(c1)O[C@H](c1ccc(O)c(O)c1)[C@H](O)[C@H]2c1c(O)cc(O)c2c1O[C@H](c1ccc(O)c(O)c1)[C@H](O)[C@H]2c1c(O)cc(O)c2c1O[C@H](c1ccc(O)c(O)c1)[C@H](O)C2` [Procyanidin C1 (2), procyanidin C1], the IC50 in the data set on EBOVpp (setting [3]) was over 1.15e-05 M. This compound also had a CC50 in the data set “in vitro” of over 11.5 µM.

`O=C(O)c1cc(O)c(O)c(O)c1` [gallic acid]: the IC50 in data set [2] is 25.4 µM.
